Test results reported in paper PMC7206119, “RIP1 inhibition blocks inflammatory diseases but not tumor growth or metastases” (Cell Death and Differentiation, 2019).

What was measured:
Test in all cases: biochemical
Design in all cases: DiscoverX kinase panel, active-site competition binding (KINOMEscan type), percent of control at one concentration
Settings in all cases: competition binding, percent of control
[1] = target: T1, PCTK2 (Homo sapiens, UniProt Q00537)
T1 construct: gene CDK17

[2] = target: T2, CDC2L5 (Homo sapiens, UniProt Q14004)
T2 construct: gene CDK13

[3] = target: T3, PFPK5(P.falciparum) (Plasmodium falciparum, UniProt P61075)
T3 construct: gene MAL13P1.279
T3 sequence (P61075 whole entry): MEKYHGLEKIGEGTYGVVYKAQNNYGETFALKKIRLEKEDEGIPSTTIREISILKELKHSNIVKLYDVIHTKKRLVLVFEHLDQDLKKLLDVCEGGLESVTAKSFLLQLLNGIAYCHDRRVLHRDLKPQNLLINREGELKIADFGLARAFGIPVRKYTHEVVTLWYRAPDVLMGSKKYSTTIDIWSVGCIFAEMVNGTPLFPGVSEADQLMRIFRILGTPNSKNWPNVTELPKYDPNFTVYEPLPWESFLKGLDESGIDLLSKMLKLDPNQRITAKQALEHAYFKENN

[4] = target: T4, PKAC-beta (Homo sapiens, UniProt P22694)
T4 construct: gene PRKACB

[5] = target: T5, TRKC (Homo sapiens, UniProt Q16288)
T5 construct: gene NTRK3

[6] = target: T6, SIK (Homo sapiens, UniProt P57059)
T6 construct: gene SIK1

[7] = target: EGFR(L858R,T790M) (Homo sapiens, UniProt P00533, L858R/T790M)
Sequence of EGFR(L858R,T790M) (P00533 whole entry T790M/L858R): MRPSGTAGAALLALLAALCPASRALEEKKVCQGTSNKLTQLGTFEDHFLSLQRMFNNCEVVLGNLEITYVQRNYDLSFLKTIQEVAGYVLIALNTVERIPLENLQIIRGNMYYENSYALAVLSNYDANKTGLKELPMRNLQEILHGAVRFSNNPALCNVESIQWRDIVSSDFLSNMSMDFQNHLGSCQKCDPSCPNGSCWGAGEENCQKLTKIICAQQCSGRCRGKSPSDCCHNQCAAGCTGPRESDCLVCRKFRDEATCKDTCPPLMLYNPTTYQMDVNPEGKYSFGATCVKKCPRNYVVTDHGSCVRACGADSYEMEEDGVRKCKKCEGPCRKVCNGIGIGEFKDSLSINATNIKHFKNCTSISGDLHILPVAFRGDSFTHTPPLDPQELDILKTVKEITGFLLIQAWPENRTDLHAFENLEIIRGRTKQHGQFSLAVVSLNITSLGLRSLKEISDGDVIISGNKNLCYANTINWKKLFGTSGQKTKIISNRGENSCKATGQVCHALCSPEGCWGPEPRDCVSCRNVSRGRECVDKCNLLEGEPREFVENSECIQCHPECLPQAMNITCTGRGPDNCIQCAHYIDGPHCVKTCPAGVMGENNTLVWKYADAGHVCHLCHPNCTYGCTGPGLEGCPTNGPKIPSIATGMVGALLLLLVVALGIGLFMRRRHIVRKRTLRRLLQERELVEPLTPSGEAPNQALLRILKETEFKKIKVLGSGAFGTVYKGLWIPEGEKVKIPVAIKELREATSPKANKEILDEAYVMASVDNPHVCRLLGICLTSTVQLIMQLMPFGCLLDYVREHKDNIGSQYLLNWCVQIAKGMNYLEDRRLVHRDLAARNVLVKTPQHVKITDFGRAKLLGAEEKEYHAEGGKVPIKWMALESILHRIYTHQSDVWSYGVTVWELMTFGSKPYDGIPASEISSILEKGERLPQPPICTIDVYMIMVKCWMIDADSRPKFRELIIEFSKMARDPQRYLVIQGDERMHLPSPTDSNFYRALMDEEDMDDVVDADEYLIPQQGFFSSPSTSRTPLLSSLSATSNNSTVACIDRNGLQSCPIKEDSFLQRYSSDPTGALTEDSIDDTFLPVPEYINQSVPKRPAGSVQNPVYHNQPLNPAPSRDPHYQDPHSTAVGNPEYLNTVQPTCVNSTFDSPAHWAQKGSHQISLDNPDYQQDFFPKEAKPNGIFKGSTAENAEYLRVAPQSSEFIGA

[8] = target: T7, PRP4 (Homo sapiens, UniProt Q13523)
T7 construct: gene PRPF4B
T7 sequence (Q13523 whole entry): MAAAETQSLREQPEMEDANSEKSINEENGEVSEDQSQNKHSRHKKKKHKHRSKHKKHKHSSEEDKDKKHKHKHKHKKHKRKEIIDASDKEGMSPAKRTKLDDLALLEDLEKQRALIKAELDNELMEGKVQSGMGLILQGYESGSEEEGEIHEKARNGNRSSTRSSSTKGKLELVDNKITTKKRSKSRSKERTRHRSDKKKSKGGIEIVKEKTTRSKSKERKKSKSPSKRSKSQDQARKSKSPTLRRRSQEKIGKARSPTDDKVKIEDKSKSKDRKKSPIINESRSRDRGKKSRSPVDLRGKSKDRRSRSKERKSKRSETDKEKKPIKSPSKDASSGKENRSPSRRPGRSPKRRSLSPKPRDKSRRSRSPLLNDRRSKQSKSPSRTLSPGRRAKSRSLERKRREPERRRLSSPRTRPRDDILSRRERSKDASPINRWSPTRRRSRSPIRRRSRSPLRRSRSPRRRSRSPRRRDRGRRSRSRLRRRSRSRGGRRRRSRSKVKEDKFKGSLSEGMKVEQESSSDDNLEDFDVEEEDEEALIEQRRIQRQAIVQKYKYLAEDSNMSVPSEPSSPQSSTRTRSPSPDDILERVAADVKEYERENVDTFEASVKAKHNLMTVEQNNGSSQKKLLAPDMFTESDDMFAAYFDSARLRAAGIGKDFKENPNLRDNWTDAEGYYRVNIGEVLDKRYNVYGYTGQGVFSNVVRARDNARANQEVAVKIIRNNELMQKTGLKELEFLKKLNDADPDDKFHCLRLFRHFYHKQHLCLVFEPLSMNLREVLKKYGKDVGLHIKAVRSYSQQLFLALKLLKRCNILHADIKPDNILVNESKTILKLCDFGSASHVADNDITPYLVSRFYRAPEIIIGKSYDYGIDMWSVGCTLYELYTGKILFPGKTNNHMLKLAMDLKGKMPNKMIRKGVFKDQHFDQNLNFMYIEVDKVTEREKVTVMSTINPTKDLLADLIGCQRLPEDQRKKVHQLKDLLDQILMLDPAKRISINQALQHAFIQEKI

[9] = target: SRPK3 (Homo sapiens, UniProt Q9UPE1)
Sequence of SRPK3 (Q9UPE1 whole entry): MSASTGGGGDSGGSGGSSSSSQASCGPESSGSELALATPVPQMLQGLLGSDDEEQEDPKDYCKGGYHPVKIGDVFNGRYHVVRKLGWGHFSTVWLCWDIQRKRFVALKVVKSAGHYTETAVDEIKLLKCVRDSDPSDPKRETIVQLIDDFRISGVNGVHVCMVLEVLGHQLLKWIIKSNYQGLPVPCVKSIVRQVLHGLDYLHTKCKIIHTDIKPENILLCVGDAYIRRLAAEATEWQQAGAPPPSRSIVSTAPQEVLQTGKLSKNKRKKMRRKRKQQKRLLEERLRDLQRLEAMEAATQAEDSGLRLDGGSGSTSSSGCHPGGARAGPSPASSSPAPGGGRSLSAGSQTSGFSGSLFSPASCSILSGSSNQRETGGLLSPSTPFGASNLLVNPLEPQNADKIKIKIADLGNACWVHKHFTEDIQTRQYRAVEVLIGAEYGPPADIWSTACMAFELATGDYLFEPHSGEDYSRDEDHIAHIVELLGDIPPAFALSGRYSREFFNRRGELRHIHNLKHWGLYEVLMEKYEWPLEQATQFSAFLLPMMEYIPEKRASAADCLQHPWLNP

[10] = target: PIK3CA(Q546K) (Homo sapiens, UniProt P42336, Q546K)
[11] = target: ROCK2 (Homo sapiens, UniProt O75116)
Sequence of ROCK2 (O75116 whole entry): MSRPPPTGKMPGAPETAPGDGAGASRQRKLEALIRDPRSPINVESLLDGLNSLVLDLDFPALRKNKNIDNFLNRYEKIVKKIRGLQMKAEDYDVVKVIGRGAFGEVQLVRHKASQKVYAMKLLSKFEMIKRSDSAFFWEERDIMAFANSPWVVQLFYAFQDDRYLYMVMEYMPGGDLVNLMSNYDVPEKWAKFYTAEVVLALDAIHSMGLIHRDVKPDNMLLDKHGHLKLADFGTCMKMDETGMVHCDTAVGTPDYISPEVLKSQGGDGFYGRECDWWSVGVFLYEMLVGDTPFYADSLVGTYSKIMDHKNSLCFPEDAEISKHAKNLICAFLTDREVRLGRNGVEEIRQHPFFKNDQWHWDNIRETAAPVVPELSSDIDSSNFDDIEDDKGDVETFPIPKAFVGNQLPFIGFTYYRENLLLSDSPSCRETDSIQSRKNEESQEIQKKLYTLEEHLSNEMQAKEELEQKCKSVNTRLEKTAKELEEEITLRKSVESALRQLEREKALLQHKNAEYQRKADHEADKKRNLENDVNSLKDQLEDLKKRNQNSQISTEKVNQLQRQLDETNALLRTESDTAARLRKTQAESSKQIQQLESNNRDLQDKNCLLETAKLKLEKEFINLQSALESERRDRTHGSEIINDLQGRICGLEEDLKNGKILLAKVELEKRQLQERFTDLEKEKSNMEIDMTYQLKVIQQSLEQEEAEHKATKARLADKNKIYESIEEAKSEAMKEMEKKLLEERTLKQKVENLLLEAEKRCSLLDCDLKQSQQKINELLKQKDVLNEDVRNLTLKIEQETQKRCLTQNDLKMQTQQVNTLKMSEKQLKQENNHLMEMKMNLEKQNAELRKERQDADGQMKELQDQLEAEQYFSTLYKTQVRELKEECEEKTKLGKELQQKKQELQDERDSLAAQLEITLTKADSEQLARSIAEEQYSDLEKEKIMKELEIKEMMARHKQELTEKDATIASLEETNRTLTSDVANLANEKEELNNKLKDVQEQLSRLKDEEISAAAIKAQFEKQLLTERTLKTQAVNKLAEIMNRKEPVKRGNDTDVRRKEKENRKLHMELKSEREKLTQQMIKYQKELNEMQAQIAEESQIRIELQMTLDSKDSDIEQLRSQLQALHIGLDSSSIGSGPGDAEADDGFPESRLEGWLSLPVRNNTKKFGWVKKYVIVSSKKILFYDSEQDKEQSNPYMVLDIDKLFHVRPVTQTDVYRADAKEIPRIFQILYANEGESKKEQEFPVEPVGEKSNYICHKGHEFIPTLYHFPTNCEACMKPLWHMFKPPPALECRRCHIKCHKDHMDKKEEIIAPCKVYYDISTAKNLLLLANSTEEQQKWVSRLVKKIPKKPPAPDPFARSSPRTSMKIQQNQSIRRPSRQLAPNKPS

[12] = target: EGFR(G719C) (Homo sapiens, UniProt P00533, G719C)
[13] = target: PRKG1 (Homo sapiens, UniProt Q13976)
[14] = target: KIT (Homo sapiens, UniProt P10721)
[15] = target: STK39 (Homo sapiens, UniProt Q9UEW8)
[16] = target: EPHA7 (Homo sapiens, UniProt Q15375)
[17] = target: CAMK1G (Homo sapiens, UniProt Q96NX5)
[18] = target: TAOK2 (Homo sapiens, UniProt Q9UL54)
[19] = target: CAMK1D (Homo sapiens, UniProt Q8IU85)
[20] = target: RIPK2 (Homo sapiens, UniProt O43353)
[21] = target: T8, MEK2 (Homo sapiens, UniProt P36507)
T8 construct: gene MAP2K2
T8 sequence (P36507 whole entry): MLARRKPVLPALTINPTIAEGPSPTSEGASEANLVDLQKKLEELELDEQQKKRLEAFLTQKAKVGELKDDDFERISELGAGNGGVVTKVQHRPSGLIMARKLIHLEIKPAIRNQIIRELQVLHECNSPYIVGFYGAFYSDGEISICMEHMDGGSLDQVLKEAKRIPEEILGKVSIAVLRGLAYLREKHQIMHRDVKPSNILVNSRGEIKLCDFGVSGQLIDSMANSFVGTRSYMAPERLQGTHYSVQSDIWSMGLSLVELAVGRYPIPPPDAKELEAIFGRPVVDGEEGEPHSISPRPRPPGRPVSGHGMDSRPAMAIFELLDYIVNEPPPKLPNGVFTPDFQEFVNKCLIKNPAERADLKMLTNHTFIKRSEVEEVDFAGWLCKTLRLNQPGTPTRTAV

## COc1cc2c(cn1)N(C)C(=O)[C@@H](NC(=O)c1nc3n(n1)[C@H](c1ccccc1)CC3)CC2 [GNE684, (S)-N-((S)-7-methoxy-1-methyl-2-oxo-2,3,4,5-tetrahydro-1H-pyrido[3,4-b]azepin-3-yl)-5-phenyl-6,7-dihydro-5H-pyrrolo[1,2-b][1,2,4]triazole-2-carboxamide]
[1]
  remaining binding at 10 µM: 100%
[2]
  remaining binding at 10 µM: 100%
[3]
  remaining binding at 10 µM: 100%
[4]
  remaining binding at 10 µM: 72%
[5]
  remaining binding at 10 µM: 69%
[6]
  remaining binding at 10 µM: 100%
[7]
  remaining binding at 10 µM: 100%
[8]
  remaining binding at 10 µM: 84%
[9]
  remaining binding at 10 µM: 100%
[10]
  remaining binding at 10 µM: 49%
[11]
  remaining binding at 10 µM: 100%
[12]
  remaining binding at 10 µM: 87%
[13]
  remaining binding at 10 µM: 81%
[14]
  remaining binding at 10 µM: 95%
[15]
  remaining binding at 10 µM: 97%
[16]
  remaining binding at 10 µM: 100%
[17]
  remaining binding at 10 µM: 100%
[18]
  remaining binding at 10 µM: 92%
[19]
  remaining binding at 10 µM: 98%
[20]
  remaining binding at 10 µM: 100%
[21]
  remaining binding at 10 µM: 80%
